Reference: ChEMBL document CHEMBL1147251, “Crambescidin 826 and dehydrocrambine A: new polycyclic guanidine alkaloids from the marine sponge Monanchora sp. that inhibit HIV-1 fusion” (J Nat Prod, 2003)
Active and inactive are the calls of the source. No cut-off for these calls is given here.

Legend:
[1] = Inhibition of HIV1 LAV gp120 binding to CD4 assessed as inhibition of CD4 expressing african green monkey BSC1 cells fusion to CXCR4 expressing mouse NIH3T3 cells after 2.5 hrs by beta-galactosidase assay; type: cell-based, Human immunodeficiency virus 1
[2] = system: NIH3T3; test: Inhibition of HIV1 LAV gp120 binding to CD4 assessed as inhibition of CD4 expressing african green monkey BSC1 cells fusion to CXCR4 expressing mouse NIH3T3 cells treated after 15 to 90 mins of fusion measured after 2.5 hrs by beta-galactosidase assay; type: cell-based; settings: Human immunodeficiency virus 1
[3] = system: NIH3T3; test: Inhibition of HIV1 SF162 gp120 binding to CD4 assessed as inhibition of CD4 expressing african green monkey BSC1 cells fusion to CCR5 expressing mouse NIH3T3 cells treated after 15 to 90 mins of fusion measured after 2.5 hrs by beta-galactosidase assay; type: cell-based; settings: Human immunodeficiency virus 1
[4] = Inhibition of HIV1 SF162 gp120 binding to CD4 assessed as inhibition of CD4 expressing african green monkey BSC1 cells fusion to CCR5 expressing mouse NIH3T3 cells after 2.5 hrs by beta-galactosidase assay; type: cell-based, Human immunodeficiency virus 1

SMILES | IC50 [1] | Activity [2] | Activity [3] | IC50 [4]
CC[C@H]1CCCC[C@@]2(C[C@@H]3CC[C@@H]4[C@H](C(=O)OCCCCCCCCCCCCCCCC(=O)N(CCCN)C[C@@H](O)CCN)[C@]5(CCC[C@@H](C)O5)N=C(N2)N34)O1 [CRAMBESCIDIN 800] | 1000 nM | inactive | inactive | 1000 nM
CC[C@H]1C=CCC[C@@]2(C[C@@H]3CC[C@@H]4[C@H](C(=O)OCCCCCCCCCCCCCCCCCC(=O)N(CCCN)CCCC(N)=O)[C@]5(CCC[C@@H](C)O5)N=C(N2)N34)O1 [CRAMBESCIDIN 826] | 1000 nM |  |  | 1000 nM
CCCCCCCCCCCc1nc(=N)n2c(c1C(=O)OCCCCNC(=N)N)CCC2 [DEHYDROCRAMBINE A] | 35000 nM |  |  | 35000 nM
CC[C@H]1C=CCC[C@@]2(C[C@@H]3CC[C@@H]4[C@H](C(=O)OCCCCCCCCCCCCCCCC5=NCCCN5CC(O)CCN)[C@]5(CCC[C@@H](C)O5)N=C(N2)N34)O1 (stereo not given in full) [FROMIAMYCALIN] | 1000 nM |  |  | 1000 nM
